The term melting point denotes the temperature, or range, at which the solid turns liquid.

Compound `CCCOc1ccc(-c2cccc3nc(N)c4ncn(CC(C)C)c4c23)cc1` returned a melting point of 181 to 182 °C.

`CCOC(=O)CNc1cc(Cl)nc(Cl)n1` had a melting point of 89 to 91 °C.

Consider `COCCNC(=O)C1CCC(Nc2ncc3ncnc(Nc4ccc(F)c(Cl)c4)c3n2)CC1` (stereo not drawn), for which the melting point lay within 243 to 246 °C.

In turn, `CC(C)CCn1c(=O)c2c(Cl)cc(Cl)cc2n(Cc2ccccc2)c1=O` displayed a melting point of 89 to 92 °C.

Take `COc1nc2ccccc2nc1NC(=O)N1CCN(c2c(C)c(C)cc(C)c2C)CC1`: the melting point lay in the range of 237 to 239 °C.

For `O=C1NC(=O)C2(N1)C(=O)N(Cc1cc(Cl)c(Br)c(Cl)c1)c1ccccc12` (stereo not drawn), the melting point was in the range of 290 to 292 °C.

For the compound `CC(C)[C@H](NC(=O)OCc1ccccc1)C(=O)NC(Cc1ccccc1)C(O)C(Cc1ccccc1)NC(=O)[C@@H](NC(=O)OC(C)(C)C)C(C)C` (stereo partly drawn), the melting point turned out to be 184 °C.

For `O=c1[nH]c2cc(Cl)ccc2c(=O)c(-c2ccccc2)c1O`, the melting point lay in the range of 193 to 196 °C.

`COC(=O)CCC(=O)c1ccc(-c2ccc(F)cc2)cc1` showed a melting point of 132 to 133 °C.

Regarding `O=C(CCCN1CCCCC1)c1ccc2sc3ccc(C(=O)CCCN4CCCCC4)cc3c2c1`, the melting point lay in the range of 93 to 95 °C.

In the case of `Cc1ccc(C2c3c(C)c(N4CCN(C(=O)c5ccc(C#N)cc5)CC4)c(C)c(C)c3OC2(C)C)cc1` (stereo not drawn), the melting point fell in the range of 159 to 161 °C.

Compound `COc1cc(CBr)ccc1[N+](=O)[O-]` showed a melting point of 98 °C.

For the compound `O=C(CCc1nc2ccccc2s1)Nc1cc(N2CC(c3ccccc3)OC2=O)ccn1` (stereo not drawn), the melting point was 229 to 230 °C.

Regarding `CN(C)C=NS(=O)(=O)c1cc(CCNC(=O)C(F)(F)F)ccc1I`, the melting point was 155 to 156 °C.

`CCCCOc1cc(C(CC(=O)OC)N2C(=O)c3ccccc3C2=O)ccc1OC` (stereo not drawn) showed a melting point of 54 to 55 °C.

With `COc1cc(O)ccc1-c1nc(C)c(-c2cccnc2)[nH]1`, the melting point lay within 237 to 240 °C.

`O=C(CCCCl)c1ccc2ccccc2c1O` showed a melting point of 73 to 79 °C.

On to `CCC(Cc1ccc(S(=O)(=O)c2ccc(S(N)(=O)=O)s2)cc1)N(C)C` (stereo not drawn), for which the melting point was in the range of 169 to 172 °C.

Regarding `O=C(CNc1ccccc1)Nc1ccc(Cl)c(Cl)c1`, the melting point lay in the range of 110 to 112 °C.

As for `CCCCN(CCCC)CCCOc1ccc(S(=O)(=O)c2c(C(C)C)n(C)c3ccccc23)cc1`, the melting point stood at 90 °C.

In turn, `O=C1c2ccccc2-n2c1nc1ccc(Br)cc1c2=O` gave a melting point of 315 to 316 °C.

Consider `COc1ccc(CCNC(=O)CN)cc1OC1CCCC1`, for which the melting point was 57 to 60 °C.

The compound `COc1ccc2c(c1)CCC1=C2CCC2(C)C(=O)CCC12` (stereo not drawn) had a melting point of 110 to 120 °C.

With `Clc1ccc(Nc2nc3ccccc3c3[nH]c(C4CCCCC4)nc23)cc1Cl`, the melting point was in the range of 237 to 240 °C.

In the case of `O=C(c1ccccc1)N1CC2CSCC(C2)C1`, the melting point was 95 to 96 °C.

Turning to `C=Cc1cc(C(C)NC(=O)Nc2ccc(C(C)(C)C)cc2)ccc1NS(=O)(=O)C=C` (stereo not drawn), the melting point was in the range of 60 to 62 °C.

The compound `CC(C)C(=O)CC1NC(=O)c2ccsc2-n2cccc21` (stereo not drawn) gave a melting point of 160 °C.

In turn, `COC(=O)CCc1cc2cc(C(F)(F)F)ccc2n1S(=O)(=O)c1cccc2nc(C)sc12` had a melting point of 106 to 108 °C.

The compound `Nc1cnc(-c2ccc(Br)cc2)c(Cl)n1` had a melting point of 254 to 256 °C.

The compound `CC1(C2CC2)NC(=O)Nc2ccc(-c3cccc(Cl)c3)cc21` (stereo not drawn) showed a melting point of 125 to 127 °C.

In the case of `CC(C)(C)OC(=O)N1CCOC(C2=C(C#N)C(c3cccc(C#N)c3Br)c3c[nH]nc3N2)C1` (stereo not drawn), the melting point amounted to 219 °C.

`CCc1ccc(C2COc3c(C)c(C)c(N)c(C)c32)cc1` (stereo not drawn) registered a melting point of 88 to 89 °C.

`COc1cc2c(cc1Br)-c1c(Cl)c3c(n1CC2)C(=O)N(C(C)(C)C)CCCC3` returned a melting point of 203 to 205 °C.

`COc1c(CNS(=O)(=O)c2ccc(C)cc2)ccc2c1OCO2` came in with a melting point of 150 to 151 °C.

`CC(OC1(c2ccccc2F)NOc2c(Cl)cccc21)C(=O)O` (stereo not drawn) had a melting point of 159 to 161 °C.

Compound `CCCCCCCCCCCCCCCCCC(O)C[N+](=O)[O-]` (stereo not drawn) showed a melting point of 55 to 56 °C.

In turn, `COC(=O)C=CC(=O)OC(=C1C(=O)N(C(N)=O)c2cc(Cl)c(F)cc21)c1cccs1` returned a melting point of 184 to 186 °C.

In the case of `CON=C(C1=NOCCO1)c1ccccc1CCl`, the melting point lay within 93 to 96 °C.

Consider `N=C(Nc1ccc(C(=O)O)cc1)Nc1nc(-c2ccccc2)cs1`, for which the melting point was in the range of 245 to 247 °C.

Turning to `COc1ccnc(CCc2nc3cc(-c4ccc(S(=O)(=O)N5CCN(C)CC5)cc4)cnc3[nH]2)c1`, the melting point was in the range of 193 to 195 °C.

For `CCCCCCCCCCCCCCCCOCC(CO)COC(C)=O` (stereo not drawn), the melting point worked out at 33 °C.

The compound `CC(C)CC(C#N)(C#N)Cc1ccc(Cl)cc1` displayed a melting point of 73.2 °C.

`O=C1NC(=O)c2c1c(-c1ccccc1Cl)cc1oc3ccc(O)cc3c21` came in with a melting point of 140 to 145 °C.

Take `COc1cc(C)c(C(O)c2c(Cl)cnc(Cl)c2C(F)(F)F)c(OC)c1OC` (stereo not drawn): the melting point was in the range of 162 to 165 °C.

`CC(C)Oc1ccc(Cl)c2c(=O)c3ccccc3sc12` came in with a melting point of 91 to 93 °C.

In turn, `CCN(Cc1csc(C2CCCC2)n1)C(=O)N[C@H](C(=O)N[C@@H](Cc1ccccc1)C[C@H](O)[C@H](Cc1ccccc1)NC(=O)OCc1cncs1)C(C)C` returned a melting point of 67 to 69 °C.

Compound `CCOP(=O)(OCC)C(CCc1cc(C)nc2c(Cl)c(-c3ccccc3)nn12)P(=O)(OCC)OCC` had a melting point of 66 to 68 °C.

`CCOC(=O)c1cnn2c(-c3cccc(C)c3)ccnc12` came in with a melting point of 69 to 70 °C.

`Fc1ccc(-c2cc(Cn3cnc4c(Cl)nc5ccccc5c43)on2)cc1` registered a melting point of 219 to 220 °C.

For the compound `Clc1ccc(Oc2cc(Br)c(Cl)cc2OCc2ccccc2)c(Cl)c1`, the melting point lay in the range of 86 to 88 °C.

The compound `COc1ccc(S(=O)(=O)Nc2ncccc2/C=C/c2ccccc2)cc1` came in with a melting point of 152 to 155 °C.

`O=C(c1ccccc1)N1CCN(c2c(Cl)cncc2Cl)CC1` returned a melting point of 132 to 134 °C.

Regarding `NS(=O)(=O)NC(=O)CNC(=O)NCCCCC1CCSS1` (stereo not drawn), the melting point is 143 to 145 °C.

Take `O=C(O)CCCNS(=O)(=O)c1ccc(NC(=O)Nc2ccc(C(F)(F)F)cc2)cc1`: the melting point lay within 172 to 175 °C.

In the case of `CC(=O)OCCn1nc(O)c2[nH]c3cc(Cl)ccc3c(=O)c2c1=O`, the melting point was 307 to 309 °C.

Compound `O=C1CC(O)c2ccccc21` (stereo not drawn) had a melting point of 182 to 187 °C.

`COC(=O)N(C)c1cn2cc(Sc3ccccc3)ccc2n1` displayed a melting point of 147 to 149 °C.

For `O=C(NCCCCC1CCSS1)n1cc(F)c(=O)[nH]c1=O` (stereo not drawn), the melting point amounted to 126 °C.

On to `CN1CCN(c2n[nH]c(-c3ccc(Cl)cc3)c2-c2ccncc2)CC1`, for which the melting point was in the range of 262 to 264 °C.

`Cc1nc2cc(Cl)ccc2c(=O)n1CCc1ccccc1` yielded a melting point of 133 to 135 °C.

Compound `CC(C)(C)C(=O)c1c[nH]c2ncc(N3Cc4ccccc4C3=O)nc12` had a melting point of 287 to 289 °C.

On to `COc1cccc(-c2cc3cnc(N)nc3nc2NC(=O)NC(C)(C)C)c1`, for which the melting point fell in the range of 275 to 280 °C.

As to `Cc1ccc(C2CC(=O)CC(c3ccc(C)cc3)N2C)cc1` (stereo not drawn), the melting point lay in the range of 105 to 107 °C.

For the origin of these results see a melting point compilation (Tetko et al.; mined from patent text by program, amines drawn as free bases though some values may be those of a salt).
